Experimental data: patent publication US7906525B2, “Reduction of imiquimod impurities at four months using refined oleic acid” (priority 2004, dated 2011)
In brackets after ≈: the same amount, converted by molar mass.

Assay: Solubility in water
Format: physicochemical

Structure (SMILES): CC(C)Cn1cnc2c(N)nc3ccccc3c21 [imiquimod, 1-(2-methylpropyl)-1H-imidazo[4,5-c]quinolin-4-amine]
- solubility: 0.79 µg/mL (≈ 3.29 µM)
